According to patent US10526322B2, “Inhibitors of kidney-type glutaminase, GLS-1” (CORNELL UNIVERSITY, priority 2014, dated 2020):

Tests used:
GAC [1] = target: T1, GAC (Mus musculus, UniProt D3Z7P3); test: Real-time GAC enzyme activity assay coupled to glutamate dehydrogenase (NADH fluorescence); format: biochemical
T1 construct: (residues 72-603) was cloned into a pET23a vector; His-tag with thrombin cleavage site (N, cleaved yes); made in house
T1 sequence (D3Z7P3 72-603 isoform D3Z7P3-2): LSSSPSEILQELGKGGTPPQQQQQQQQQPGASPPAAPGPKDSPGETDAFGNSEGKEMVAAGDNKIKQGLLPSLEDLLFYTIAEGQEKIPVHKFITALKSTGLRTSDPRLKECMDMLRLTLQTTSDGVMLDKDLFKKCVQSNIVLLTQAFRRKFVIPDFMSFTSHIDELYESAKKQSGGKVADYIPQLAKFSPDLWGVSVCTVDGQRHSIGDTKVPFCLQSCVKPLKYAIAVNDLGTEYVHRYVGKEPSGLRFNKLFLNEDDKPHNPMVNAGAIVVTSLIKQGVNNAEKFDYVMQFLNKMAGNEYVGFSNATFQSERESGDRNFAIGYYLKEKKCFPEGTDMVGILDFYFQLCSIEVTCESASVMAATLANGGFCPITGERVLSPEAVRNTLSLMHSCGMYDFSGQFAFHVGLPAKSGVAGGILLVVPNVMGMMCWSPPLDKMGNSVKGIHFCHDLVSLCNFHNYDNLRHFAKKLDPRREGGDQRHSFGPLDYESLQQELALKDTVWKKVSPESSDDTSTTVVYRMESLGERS
Method: A plasmid encoding the mouse kidney-type glutaminase isoform 2 (GAC, GenBank Accession No. NP_001106854.1, which is hereby incorporated by reference in its entirety) (residues 72-603) was cloned into a pET23a vector containing an N-terminal histidine (His)-tag and thrombin cleavage site. The expressed protein was purified using Co^2+ affinity beads (Clontech), followed by His-tag cleavage with human thrombin (Haemetologic Technologies) overnight at 4° C., and subsequently purified by anion exchange (GE healthcare) and gel filtration chromatography. Purified GAC was stored in a high salt-containing buffer (20 mM Tris-HCl pH 8.5, 500 mM NaCl, 1 mM NaN3) at −80° C., following snap freezing in liquid N2 for long term use. Labeling recombinant GAC with small molecule probes was performed by exchanging 1.5 mg of enzyme into 50 mM HEPES, pH 7.2, and 100 mM NaCl (labeling buffer), using a PD10 desalting column (GE healthcare). The enzyme was then incubated with 50 μM (5-fold excess of enzyme) of either AlexaFluor 488 succinimidyl ester or QSY9 succinimidyl ester (Molecular Probes) for 1 hour at 4° C. After 1 hour, the labeling reaction was quenched with 150 mM Tris-HCl, pH 8.5, and unreacted probe was separated from labeled-enzyme using a PD10 desalting column, eluting labeled-GAC back into the high salt-containing buffer. The stoichiometry of labeling was determined using the probe manufacturer's reported molar absorptivity values and instructions. Briefly, the concentration of GAC was determined by first correcting absorbance at 280 nm (Abs280) for each probe, using the reported correction values (0.11 for AlexaFluor 488 and 0.23 for QSY-9) and their absorbance values at their absorbance maxima (495 nm and 562 nm, respectively). The corrected Abs280 was used along with the experimentally determined molar absorptivity of GAC (ε280=38,850 M−1 cm−1). AlexaFluor 488 and QSY-9 probes were quantified using their respective absorbance maxima and the manufacturer's reported molar absorptivity values (ε495=71,000 M−1 cm−1 and ε562=85,000 M−1 cm−1).
Real-time fluorescence monitoring of 968 binding and GAC activity through production of NADH was performed on a Varian Cary Eclipse Fluorometer, whereas small molecule inhibition and binding titrations were performed in a 96-well format in a Tecan Saphire absorbance and fluorescence plate reader. Samples for monitoring real-time binding of 968 to 488-GAC were prepared by adding 10 μL of varying concentrations of 968 prepared in DMSO to an equilibrated 1 mL sample of 10 nM 488-GAC, while observing 488 fluorescence (490 nm excitation/520 nm emission). Similarly, this method was replicated for monitoring real-time binding of 968 to mutant forms of GAC, namely 488-labeled GAC (GD391K) and 488-GAC (D391K, K316E, R459E). Real-time activity assays monitoring 968 binding and NADH production were prepared in 1 mL samples, where 10 units of glutamate dehydrogenase (Sigma) and 2 mM NAD+ (Sigma) were prepared in 50 mM Tris-Acetate, pH 8.5, 0.1 mM EDTA and equilibrated at 20° C. WT GAC (10 nM) was added and allowed to equilibrate 2 minutes before monitoring the fluorescence emission of 488-GAC (490 nm excitation, 520 nm emission) and NADH (340 nm excitation, 490 nm emission). Appropriate dilutions of 968 or BPTES prepared in DMSO were introduced after 30 seconds and allowed to equilibrate for 2 minutes before a 180 μL solution of K2HPO4 and glutamine was added to make a final concentration of 50 mM K2HPO4 and 20 mM glutamine, to initiate GAC activation. The activity of GAC was measured in a coupled assay, by monitoring the NADH produced by glutamate dehydrogenase, which converts the product of the glutaminase-catalyzed reaction, glutamate, to α-ketoglutarate and ammonia by reducing NAD+ to NADH. […]

[2] = target: T2, 488-GAC (mouse kidney-type glutaminase isoform 2, GAC) (Mus musculus, UniProt D3Z7P3); test: Real-time binding assay, quenching of 488-GAC fluorescence; conditions: 10 nM 488-GAC, 96-well plate format; read-out: KD of binding isotherm (fluorescence quenching)
T2 construct: (residues 72-603) was cloned into a pET23a vector; His-tag with thrombin cleavage site (N, cleaved yes); made in house
T2 sequence (D3Z7P3 72-603 isoform D3Z7P3-2): T1 sequence (D3Z7P3 72-603 isoform D3Z7P3-2)
Method: A plasmid encoding the mouse kidney-type glutaminase isoform 2 (GAC, GenBank Accession No. NP_001106854.1, which is hereby incorporated by reference in its entirety) (residues 72-603) was cloned into a pET23a vector containing an N-terminal histidine (His)-tag and thrombin cleavage site. The expressed protein was purified using Co^2+ affinity beads (Clontech), followed by His-tag cleavage with human thrombin (Haemetologic Technologies) overnight at 4° C., and subsequently purified by anion exchange (GE healthcare) and gel filtration chromatography. […] The stoichiometry of labeling was determined using the probe manufacturer's reported molar absorptivity values and instructions. Briefly, the concentration of GAC was determined by first correcting absorbance at 280 nm (Abs280) for each probe, using the reported correction values (0.11 for AlexaFluor 488 and 0.23 for QSY-9) and their absorbance values at their absorbance maxima (495 nm and 562 nm, respectively). The corrected Abs280 was used along with the experimentally determined molar absorptivity of GAC (ε280=38,850 M−1 cm−1). AlexaFluor 488 and QSY-9 probes were quantified using their respective absorbance maxima and the manufacturer's reported molar absorptivity values (ε495=71,000 M−1 cm−1 and ε562=85,000 M−1 cm−1). […]

GAC [3] = target: T1, GAC; test: Real-time GAC enzyme activity assay coupled to glutamate dehydrogenase (NADH fluorescence); format: biochemical; remark: listed apart in the source

SMILES: CC1(C)CC(=O)C2=C(C1)c1c(ccc3cc4ccccc4cc13)NC2c1ccc(N=[N+]=[N-])cc1 (centres unmarked) [SU-22]
- concentration inhibiting the GAC isoform compared with parent compound 968 (GAC [1]; in vitro inhibition, FIG. 9 / FIG. 11): lower concentration than the parent compound, 968

SMILES: CN(C)c1ccc(C2Nc3ccc4ccccc4c3C3=C2C(=O)CC(C)(C)C3)cc1Br (centres unmarked) [Compound 968]
- Kd [2]: 3 µM
- inhibition of enzyme activity (GAC [1]; GAC pre-incubated with 968 before adding phosphate): strongly inhibited
- potency of inhibition of GAC activity (GAC [3]; GAC concentration decreased from 50 nM to 5 nM): greater potency
- inhibition of enzyme activity (GAC [3]; GAC preincubated with inorganic phosphate (50 mM Pi) before 968): much less effective
